From paper PMC10850145, “Hormonal steroids induce multidrug resistance and stress response genes in Neisseria gonorrhoeae by binding to MtrR” (Nature Communications, 2024)
Several values for one entry are separate records, joined by “and”; a condition that tells them apart may be missing. Equal entries are not always repeated. Entries after “also recorded” stand apart in the source; their conditions may differ. Where two headings read alike, the source gives them in different places.

Key:
[1] = molecular target: T1, MtrR binding to mtrCDE operator (21mer) (Neisseria gonorrhoeae, UniProt P39897); test: Fluorescence polarization based DNA binding assay, mtrCDE operator; details: mtrCDE 21mer + 125 µM steroid
T1 construct: Hexa-histidine tag with TEV protease cleavage site (N, cleaved yes); made in house; host or cells: E. coli Rosetta Gami B(DE3) pLysS
T1 sequence (P39897 whole entry): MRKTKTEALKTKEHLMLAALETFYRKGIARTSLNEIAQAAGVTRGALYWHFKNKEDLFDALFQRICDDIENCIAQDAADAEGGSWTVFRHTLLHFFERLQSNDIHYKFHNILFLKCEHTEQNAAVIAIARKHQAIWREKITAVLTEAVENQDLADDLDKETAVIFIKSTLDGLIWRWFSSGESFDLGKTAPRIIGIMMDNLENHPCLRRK
Description: Fluorescence polarization based-DNA binding data were collected using a Panvera Beacon 2000 fluorescence polarization system (Invitrogen) and analyzed with Prism (Graphpad Software 9, 10). Purified MtrR was buffer exchanged into “DNA” binding buffer (150 mM NaCl, 20 mM Tris-HCl pH 7.5, 2.5% glycerol, 1 mM TCEP). […] The reported oligoduplexes containing the rpoH and mtrCDE binding site differ in lengths, 27mer and 21mer, respectively[17],[21]. […] BSA and dI-dC are included as carriers and to control for nonspecific DNA binding. Samples were excited at 490 nm and polarized emissions measured at 530 nm. Controls were run with no protein (DNA ± methanol, hormonal steroids) to ensure that millipolarization values were not affected by experimental conditions alone. The binding affinity of protein for DNA was determined using the following equation: P = Pf + (Pb – Pf) [M] / (Kd + [M]) where P is the measured polarization, Pf is the polarization of free DNA, Pb is the polarization of the completely bound DNA, Kd is the equilibrium dissociation constant, and M is the concentration of protein. Pb and Kd were determined by nonlinear least-squares analysis. At least three independent experimental measurements were averaged for each reported binding constant.

N. gonorrhoeae = system: N. gonorrhoeae; parameters: method as in PMID 816438; details: listed as PTR; cited from earlier work
rpoH-lacZ expression = format: cell-based, Neisseria gonorrhoeae; details: for Miller units, single well: individual replicate; for Miller units, Mean: mean of 4 wells; for Miller units / β-galactosidase activity (Miller units): rpoH-lacZ, single replicate
MtrR R176E = molecular target: T2, MtrR R176E (Neisseria gonorrhoeae, UniProt P39897, R176E); test: biochemical; format: binding
T2 construct: Hexa-histidine tag with TEV protease cleavage site (N, cleaved yes); made in house; host or cells: E. coli Rosetta Gami B(DE3) pLysS
T2 sequence (P39897 whole entry R176E): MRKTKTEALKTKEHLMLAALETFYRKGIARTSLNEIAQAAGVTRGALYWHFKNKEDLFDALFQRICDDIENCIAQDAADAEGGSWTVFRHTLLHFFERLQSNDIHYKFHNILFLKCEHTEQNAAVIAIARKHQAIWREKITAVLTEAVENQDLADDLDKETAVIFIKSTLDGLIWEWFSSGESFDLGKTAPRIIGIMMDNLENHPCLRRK

FA19 mtrD::kan (KH14) = test: MIC of steroidal hormones on GC agar, FA19 mtrD::kan (KH14); format: cell-based, Neisseria gonorrhoeae
Description: To determine the minimal inhibitory concentrations (MICs) by the steroidal hormones and their effect on antimicrobial susceptibility, 5 x 10^5 CFU and 1:5 serial dilutions of gonococcal strains were spotted on GC agar plates containing different concentrations of antibiotics and/or hormones as indicated. Antimicrobial susceptibility was assessed after 24 h incubation.
Table S1. Steroidal hormones are substrates of the MtrCDE efflux pump
Progesterone Testosterone
*Minimal inhibition concentration is defined by the lowest concentration at which visible growth is […]

[2] = 6.25 µM hormone, plate columns 1-6 (WT)
[3] = 6.25 µM hormone, plate columns 7-12 (second strain, not WT)
[4] = 12.5 µM hormone, plate columns 1-6 (WT)
[5] = 12.5 µM hormone, plate columns 7-12 (second strain, not WT)
[6] = 25 µM hormone, plate columns 1-6 (WT)
[7] = 25 µM hormone, plate columns 7-12 (second strain, not WT)
[8] = 50 µM hormone, plate columns 1-6 (WT)
[9] = 50 µM hormone, plate columns 7-12 (second strain, not WT)
[10] = ΔmtrR + mtrR D171A in trans, 6.25 µM hormone
[11] = ΔmtrR + mtrR D171A in trans, 12.5 µM hormone
[12] = ΔmtrR + mtrR D171A in trans, 25 µM hormone
[13] = ΔmtrR + mtrR D171A in trans, 50 µM hormone

CC(=O)[C@H]1CC[C@H]2[C@@H]3CCC4=CC(=O)CC[C@]4(C)[C@H]3CC[C@]12C [Progesterone, progesterone]
fluorescence polarization, MtrR titration ([1]; MtrR WT dimer 0.00 nM): 0.00 mP
fluorescence polarization, MtrR titration ([1]; MtrR WT dimer 3.83 nM): 3.14 mP
fluorescence polarization, MtrR titration ([1]; MtrR WT dimer 8.85 nM): 6.47 mP
fluorescence polarization, MtrR titration ([1]; MtrR WT dimer 11.32 nM): 7.37 mP and 3.83 mP and 6.23 mP
fluorescence polarization, MtrR titration ([1]; MtrR WT dimer 16.21 nM): 8.61 mP and 4.53 mP and 7.86 mP
fluorescence polarization, MtrR titration ([1]; MtrR WT dimer 35.50 nM): 11.01 mP and 7.99 mP and 10.09 mP
fluorescence polarization, MtrR titration ([1]; MtrR WT dimer 73.35 nM): 14.94 mP and 12.16 mP and 13.46 mP
fluorescence polarization, MtrR titration ([1]; MtrR WT dimer 110.67 nM): 19.14 mP and 15.56 mP and 17.23 mP
fluorescence polarization, MtrR titration ([1]; MtrR WT dimer 147.65 nM): 23.64 mP and 19.79 mP and 21.69 mP
fluorescence polarization, MtrR titration ([1]; MtrR WT dimer 220.59 nM): 29.74 mP and 25.09 mP and 27.23 mP
fluorescence polarization, MtrR titration ([1]; MtrR WT dimer 292.55 nM): 32.91 mP and 28.39 mP and 31.63 mP
fluorescence polarization, MtrR titration ([1]; MtrR WT dimer 363.86 nM): 35.71 mP and 31.19 mP and 34.99 mP
fluorescence polarization, MtrR titration ([1]; MtrR WT dimer 434.54 nM): 39.37 mP and 32.93 mP and 37.49 mP
fluorescence polarization, MtrR titration ([1]; MtrR WT dimer 504.61 nM): 40.97 mP and 36.33 mP and 40.13 mP
fluorescence polarization, MtrR titration ([1]; MtrR WT dimer 574.07 nM): 43.64 mP and 38.96 mP and 42.59 mP
fluorescence polarization, MtrR titration ([1]; MtrR WT dimer 711.46 nM): 46.37 mP and 42.63 mP and 45.23 mP
fluorescence polarization, MtrR titration ([1]; MtrR WT dimer 848.00 nM): 49.37 mP and 45.06 mP and 48.53 mP
growth inhibition of N. gonorrhoeae (N. gonorrhoeae): arrest N. gonorrhoeae growth; also recorded: most effective in growth inhibition
Miller units, single well (rpoH-lacZ expression; [2]): 42 Miller units and 34 Miller units and 33 Miller units
Miller units, Mean (rpoH-lacZ expression; [2]): 35 Miller units
Miller units, single well (rpoH-lacZ expression; [3]): 87 Miller units and 84 Miller units and 94 Miller units and 85 Miller units
Miller units, Mean (rpoH-lacZ expression; [3]): 87 Miller units
Miller units, single well (rpoH-lacZ expression; [4]): 35 Miller units and 36 Miller units and 31 Miller units and 38 Miller units
Miller units, Mean (rpoH-lacZ expression; [4]): 35 Miller units
Miller units, single well (rpoH-lacZ expression; [5]): 87 Miller units and 78 Miller units and 71 Miller units and 77 Miller units
Miller units, Mean (rpoH-lacZ expression; [5]): 78 Miller units
Miller units, single well (rpoH-lacZ expression; [6]): 60 Miller units and 61 Miller units and 39 Miller units and 59 Miller units
Miller units, Mean (rpoH-lacZ expression; [6]): 55 Miller units
Miller units, single well (rpoH-lacZ expression; [7]): 95 Miller units and 81 Miller units and 89 Miller units and 80 Miller units
Miller units, Mean (rpoH-lacZ expression; [7]): 86 Miller units
Miller units, single well (rpoH-lacZ expression; [8]): 66 Miller units and 65 Miller units and 44 Miller units
Miller units, Mean (rpoH-lacZ expression; [8]): 60 Miller units
Miller units, single well (rpoH-lacZ expression; [9]): 64 Miller units and 60 Miller units and 72 Miller units and 71 Miller units
Miller units, Mean (rpoH-lacZ expression; [9]): 67 Miller units
induction of rpoH expression (rpoH-lacZ expression; complemented (MtrR+) strains, increasing hormone): could be induced
induction of rpoH expression (rpoH-lacZ expression; loss of MtrR or MtrR-D171A strain): abrogated
Miller units (rpoH-lacZ expression; [10]): 94 Miller units
β-galactosidase activity (Miller units) (rpoH-lacZ expression; [10]): 87 Miller units and 84 Miller units and 85 Miller units
Miller units (rpoH-lacZ expression; [11]): 71 Miller units
β-galactosidase activity (Miller units) (rpoH-lacZ expression; [11]): 87 Miller units and 78 Miller units and 77 Miller units
Miller units (rpoH-lacZ expression; [12]): 89 Miller units
β-galactosidase activity (Miller units) (rpoH-lacZ expression; [12]): 95 Miller units and 81 Miller units and 80 Miller units
Miller units (rpoH-lacZ expression; [13]): 72 Miller units
β-galactosidase activity (Miller units) (rpoH-lacZ expression; [13]): 64 Miller units and 60 Miller units and 71 Miller units
β-galactosidase activity (Miller units) (rpoH-lacZ expression; ΔmtrR + mtrR WT in trans, 6.25 µM hormone): 42 Miller units and 34 Miller units and 33 Miller units
β-galactosidase activity (Miller units) (rpoH-lacZ expression; ΔmtrR + mtrR WT in trans, 12.5 µM hormone): 35 Miller units and 36 Miller units and 31 Miller units and 38 Miller units
β-galactosidase activity (Miller units) (rpoH-lacZ expression; ΔmtrR + mtrR WT in trans, 25 µM hormone): 60 Miller units and 61 Miller units and 39 Miller units and 59 Miller units
β-galactosidase activity (Miller units) (rpoH-lacZ expression; ΔmtrR + mtrR WT in trans, 50 µM hormone): 66 Miller units and 65 Miller units and 44 Miller units
β-galactosidase activity (Miller units) (rpoH-lacZ expression; ΔmtrR strain, 6.25 µM hormone): 315 Miller units and 172 Miller units and 146 Miller units
β-galactosidase activity (Miller units) (rpoH-lacZ expression; ΔmtrR strain, 12.5 µM hormone): 228 Miller units and 142 Miller units and 163 Miller units
β-galactosidase activity (Miller units) (rpoH-lacZ expression; ΔmtrR strain, 25 µM hormone): 253 Miller units and 160 Miller units and 118 Miller units
β-galactosidase activity (Miller units) (rpoH-lacZ expression; ΔmtrR strain, 50 µM hormone): 186 Miller units and 118 Miller units and 96 Miller units
Miller units (rpoH-lacZ expression; ΔmtrR, 6.25 µM hormone): 180 Miller units
Miller units (rpoH-lacZ expression; ΔmtrR, 12.5 µM hormone): 168 Miller units
Miller units (rpoH-lacZ expression; ΔmtrR, 25 µM hormone): 170 Miller units
Miller units (rpoH-lacZ expression; ΔmtrR, 50 µM hormone): 138 Miller units
β-galactosidase activity, rpoH-lacZ, Mean (rpoH-lacZ expression; strain WT (FA19/pLES94-rpoH), hormone 6.25 µM): 66 Miller units
β-galactosidase activity, rpoH-lacZ, Mean (rpoH-lacZ expression; strain WT (FA19/pLES94-rpoH), hormone 12.5 µM): 79 Miller units
β-galactosidase activity, rpoH-lacZ, Mean (rpoH-lacZ expression; strain WT (FA19/pLES94-rpoH), hormone 50 µM): 136 Miller units
activation of rpoH (rpoH-lacZ expression; strain producing MtrR R176E): almost no activation
β-galactosidase activity, rpoH-lacZ, Mean (rpoH-lacZ expression; strain ΔmtrR (FA19 ∆mtrR/pLES94-rpoH), hormone 6.25 µM): 203 Miller units
β-galactosidase activity, rpoH-lacZ, Mean (rpoH-lacZ expression; strain ΔmtrR (FA19 ∆mtrR/pLES94-rpoH), hormone 12.5 µM): 175 Miller units
β-galactosidase activity, rpoH-lacZ, Mean (rpoH-lacZ expression; strain ΔmtrR (FA19 ∆mtrR/pLES94-rpoH), hormone 25 µM): 175 Miller units
β-galactosidase activity, rpoH-lacZ, Mean (rpoH-lacZ expression; strain ΔmtrR (FA19 ∆mtrR/pLES94-rpoH), hormone 50 µM): 134 Miller units
β-galactosidase activity, rpoH-lacZ, Mean (rpoH-lacZ expression; strain ΔmtrR + mtrR D171A (pGCC3-mtrR D171A), hormone 6.25 µM): 87 Miller units
β-galactosidase activity, rpoH-lacZ, Mean (rpoH-lacZ expression; strain ΔmtrR + mtrR D171A (pGCC3-mtrR D171A), hormone 12.5 µM): 78 Miller units
β-galactosidase activity, rpoH-lacZ, Mean (rpoH-lacZ expression; strain ΔmtrR + mtrR D171A (pGCC3-mtrR D171A), hormone 25 µM): 86 Miller units
β-galactosidase activity, rpoH-lacZ, Mean (rpoH-lacZ expression; strain ΔmtrR + mtrR D171A (pGCC3-mtrR D171A), hormone 50 µM): 67 Miller units
β-galactosidase activity, rpoH-lacZ, Mean (rpoH-lacZ expression; strain ΔmtrR + mtrR WT (pGCC3-mtrR), hormone 6.25 µM): 35 Miller units
β-galactosidase activity, rpoH-lacZ, Mean (rpoH-lacZ expression; strain ΔmtrR + mtrR WT (pGCC3-mtrR), hormone 12.5 µM): 35 Miller units
β-galactosidase activity, rpoH-lacZ, Mean (rpoH-lacZ expression; strain ΔmtrR + mtrR WT (pGCC3-mtrR), hormone 25 µM): 55 Miller units
β-galactosidase activity, rpoH-lacZ, Mean (rpoH-lacZ expression; strain ΔmtrR + mtrR WT (pGCC3-mtrR), hormone 50 µM): 60 Miller units
Kd (MtrR R176E): 8.43 ± 8.3 µM
MIC (FA19 mtrD::kan (KH14); Neisseria gonorrhoeae): 20 µg/mL and 64 µM
effect of mtrD deletion on MIC (FA19 mtrD::kan (KH14); vs FA19): lowered
